Results: article PMC3179684 (Toxicological Sciences, 2011)
Several values for one entry are separate records, joined by “and”; a condition that tells them apart may be missing. Equal values may be shown once. Read-outs that look alike come from different tables or passages of the source. Marks after values point to notes of the source that are not given here.

How the values were obtained:
[1] = Thermodynamic partition coefficient medium-to-air; assay type: physicochemical; conditions: microsomal incubations, 37°C (ET n = 5, EO n = 3)
[2] = value used in the physiological toxicokinetic model; ref Csanády et al. (2000); cited from earlier work
CYP2E1 [3] = molecular target: T1, CYP2E1 (Mus musculus, UniProt Q05421); test: EO formation in ET-exposed liver microsomes of wild-type mice; assay type: in vitro ADME, 129S1/SvImJ mice (wild-type mice)
T1 sequence (Q05421 whole entry): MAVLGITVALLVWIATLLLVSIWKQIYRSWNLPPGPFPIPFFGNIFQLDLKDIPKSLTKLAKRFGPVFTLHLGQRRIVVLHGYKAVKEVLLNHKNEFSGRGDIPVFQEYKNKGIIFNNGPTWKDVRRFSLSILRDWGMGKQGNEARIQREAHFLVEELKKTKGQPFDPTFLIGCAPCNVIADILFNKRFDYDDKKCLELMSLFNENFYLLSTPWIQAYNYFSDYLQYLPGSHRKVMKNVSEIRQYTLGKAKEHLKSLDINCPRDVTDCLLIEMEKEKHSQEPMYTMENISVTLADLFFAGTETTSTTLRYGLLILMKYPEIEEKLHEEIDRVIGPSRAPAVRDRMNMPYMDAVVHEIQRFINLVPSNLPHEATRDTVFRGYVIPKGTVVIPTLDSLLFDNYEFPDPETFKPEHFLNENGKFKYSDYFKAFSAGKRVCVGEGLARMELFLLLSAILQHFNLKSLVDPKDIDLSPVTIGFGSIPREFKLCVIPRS

hepatic CYP = conditions: rats, 600 ppm ET, cited from earlier work
CYP [4] = test: Metabolic ET elimination in mouse liver microsomes; assay type: in vitro ADME, B6C3F1 mice; conditions: 10 mg protein/ml, ET 170 ppm in vessel atmosphere
[5] = mouse, gas uptake; ref Artati et al. (2009); cited from earlier work
CYP2E1 [6] = molecular target: T1, CYP2E1; test: EO formation in ET-exposed mouse liver microsomes; assay type: in vitro ADME, B6C3F1 mice
CYP2E1 [7] = molecular target: CYP2E1 (Homo sapiens, UniProt P05181); test: EO formation in ET-exposed human liver microsomes; assay type: in vitro ADME
Sequence of CYP2E1 (Homo sapiens, UniProt P05181) (P05181 whole entry): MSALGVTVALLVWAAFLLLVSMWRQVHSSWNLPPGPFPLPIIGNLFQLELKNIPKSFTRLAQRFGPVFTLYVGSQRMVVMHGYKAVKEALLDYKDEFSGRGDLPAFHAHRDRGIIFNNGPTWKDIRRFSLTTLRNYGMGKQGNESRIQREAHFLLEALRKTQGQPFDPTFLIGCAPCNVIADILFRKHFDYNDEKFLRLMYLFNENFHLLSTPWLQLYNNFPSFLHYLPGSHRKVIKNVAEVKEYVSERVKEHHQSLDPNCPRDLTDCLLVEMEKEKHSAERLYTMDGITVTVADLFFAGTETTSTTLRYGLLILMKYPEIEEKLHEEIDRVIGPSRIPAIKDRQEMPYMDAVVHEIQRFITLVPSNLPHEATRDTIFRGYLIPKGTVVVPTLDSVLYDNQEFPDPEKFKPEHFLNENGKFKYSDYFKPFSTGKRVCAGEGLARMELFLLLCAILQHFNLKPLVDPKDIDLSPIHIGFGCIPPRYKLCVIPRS

[8] = rat, gas uptake, cited from earlier work
CYP2E1 [9] = molecular target: CYP2E1 (Rattus norvegicus, UniProt P05182); test: EO formation in ET-exposed rat liver microsomes; assay type: in vitro ADME, Fischer 344 rats
Sequence of CYP2E1 (Rattus norvegicus, UniProt P05182) (P05182 whole entry): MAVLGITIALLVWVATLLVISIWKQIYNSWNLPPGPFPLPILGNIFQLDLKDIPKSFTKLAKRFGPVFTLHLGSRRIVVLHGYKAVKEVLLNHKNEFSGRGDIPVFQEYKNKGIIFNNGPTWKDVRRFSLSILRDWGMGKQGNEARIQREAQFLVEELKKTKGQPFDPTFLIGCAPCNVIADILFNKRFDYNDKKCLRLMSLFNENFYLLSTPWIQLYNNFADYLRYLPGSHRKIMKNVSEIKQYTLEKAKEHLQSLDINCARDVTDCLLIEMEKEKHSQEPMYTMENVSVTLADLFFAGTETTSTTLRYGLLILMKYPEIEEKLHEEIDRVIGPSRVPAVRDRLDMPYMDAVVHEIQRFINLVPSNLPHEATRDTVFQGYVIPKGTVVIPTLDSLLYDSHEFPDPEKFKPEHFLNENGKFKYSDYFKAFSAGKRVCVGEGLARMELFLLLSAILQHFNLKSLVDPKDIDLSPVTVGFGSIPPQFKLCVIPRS

[10] = rats; ref Hamm et al., 1984; cited from earlier work
CYP [11] = test: EO formation in ET-exposed rat lung microsomes; assay type: in vitro ADME, Fischer 344 rats
CYP [12] = test: EO formation in ET-exposed mouse lung microsomes; assay type: in vitro ADME, B6C3F1 mice
CYP [13] = test: EO formation in ET-exposed liver microsomes of CYP2E1 knockout mice; assay type: in vitro ADME, 129/Sv-Cyp2e1tm1Gonz/J mice (CYP2E1 knockout mice); conditions: pooled liver microsomes of 50 CYP2E1 knockout mice
[14] = in vitro and in vivo in rodents; ref Victorin and Ståhlberg, 1988; Walker et al., 2000; cited from earlier work
epoxide hydrolase (EH) [15] = conditions: mouse liver microsomes; about the same obtained here; ref Faller et al., 2001; cited from earlier work
[16] = GSH 15 mmol/l; ref Faller et al. (2001); cited from earlier work
epoxide hydrolase (EH) [17] = conditions: rat liver microsomes; about the same obtained here; ref Faller et al., 2001; cited from earlier work
[18] = 37°C, pH 7, estimated; ref Faller et al., 2001; cited from earlier work
[19] = determined using a synthetic iron porphyrin; ref Collman et al., 1986; cited from earlier work

In the case of `C=C` [ET, ethylene], the “Keq (thermodynamic partition coefficient medium-to-air)” value [1] is listed as 0.2 ± 0.06 and 0.2, the “apparent Michaelis constant of the ET oxidation in the liver compartment” value [2] is listed as 0.0005 mmol/L and the “VmaxEO in wild-type mice relative to CYP2E1 knockout mice” value (CYP2E1 [3]; liver microsomes) is listed as “about 15 times higher”. For the same compound, the “ratio of VmaxEO/Km in wild-type mice to VmaxEO/Km in CYP2E1 knockout mice” value (CYP2E1 [3]; liver microsomes) was 340, the “VmaxEO (maximum rate of EO formation)” value (CYP2E1 [3]; pooled liver microsomes of 50 wild-type mice) was 1.1 nmol/min/mg protein and the “hepatic 4-nitrophenol hydroxylase activity (predominantly CYP2E1) remaining” value (hepatic CYP; after 4 h, ref Fennell et al., 2004) was 50%. The “hepatic CYP remaining after inactivation” value (hepatic CYP; after 360 min of exposure, ref Maples and Dahl, 1993) was 68%, the “initial rate of metabolic ET elimination” value (CYP [4]) was 0.069 nmol/min/mg protein and the “Km, determined in vivo” value [5] was 105 ^d ppm in air. For the same compound, the “VmaxET, determined in vivo” value [5] was 15 ^d μmol/h/kg, the “VmaxEO (maximum EO formation rate)” value (CYP2E1 [6]; liver microsomes pooled from 50 mice, 37°C, mean ± SE) was 0.567 nmol/min/mg protein and 0.567 ± 0.038 nmol/min/mg protein and the “time in which hepatic CYP2E1 decreases to about one third of the initial status” value (CYP2E1 [6]; mice, very high ET concentrations, expected from k4) was 18 min. For the same compound, the “Km, predicted from in vitro” value (CYP2E1 [6]; mouse, Km in suspension divided by Kst 0.55) was 400 ppm in air, the “k3/k4 (partition ratio)” value (CYP2E1 [6]; pooled mouse liver microsomes, mean ± SE) was 100 ± 9 and the “k4 (suicide inactivation rate constant)” value (CYP2E1 [6]; pooled mouse liver microsomes, six ET incubations, mean ± SE) was 0.060 ± 0.005 min⁻¹. For the same compound, the “k3 (catalytic rate constant of EO formation)” value (CYP2E1 [6]; pooled mouse liver microsomes, VmaxEO divided by CYP2E1 content, mean ± SE) was 5.9 ± 0.6 min⁻¹, the “k3/k4 (partition ratio)” value (CYP2E1 [7]; human liver microsomes, mean ± SE) was 39 ± 6 and the “k4 (suicide inactivation rate constant)” value (CYP2E1 [7]; human liver microsomes, nine ET incubations, mean ± SE) was 0.098 ± 0.013 min⁻¹. For the same compound, the “Km, predicted from in vitro” value (CYP2E1 [7]; human, Km in suspension divided by Kst 0.33) was 963 ppm in air, the “time in which hepatic CYP2E1 decreases to about one third of the initial status” value (CYP2E1 [7]; humans, very high ET concentrations, expected from k4) was 11 min and the “VmaxEO (maximum EO formation rate)” value (CYP2E1 [7]; liver microsomes from one individual, mean ± SE) was 0.253 ± 0.0002 nmol/min/mg protein. The “VmaxEO (maximum EO formation rate)” value (CYP2E1 [7]; liver microsomes pooled from 25 humans, 37°C, mean ± SE) was 0.219 nmol/min/mg protein and 0.219 ± 0.005 nmol/min/mg protein, the “k3 (catalytic rate constant of EO formation)” value (CYP2E1 [7]; pooled human liver microsomes, VmaxEO divided by CYP2E1 content, mean ± SE) was 3.2 ± 0.2 min⁻¹ and the “Km, determined in vivo” value ([8]; ref Andersen et al. (1980)) was 218 ^f ppm in air. For the same compound, the “VmaxET, determined in vivo” value ([8]; ref Andersen et al. (1980)) was 8.6 ^f μmol/h/kg, the “Km, determined in vivo” value ([8]; ref Bolt et al. (1984)) was 204 ^e ppm in air and the “VmaxET, determined in vivo” value ([8]; ref Bolt et al. (1984)) was 8.5 ^e μmol/h/kg. The “VmaxEO (maximum EO formation rate)” value (CYP2E1 [9]; liver microsomes pooled from 10 rats, 37°C, mean ± SE) was 0.401 nmol/min/mg protein and 0.401 ± 0.013 nmol/min/mg protein, the “k4 (suicide inactivation rate constant)” value (CYP2E1 [9]; pooled rat liver microsomes, eight ET incubations, mean ± SE) was 0.070 ± 0.006 min⁻¹ and the “k3/k4 (partition ratio)” value (CYP2E1 [9]; pooled rat liver microsomes, mean ± SE) was 169 ± 15. The “k3 (catalytic rate constant of EO formation)” value (CYP2E1 [9]; pooled rat liver microsomes, VmaxEO divided by CYP2E1 content, mean ± SE) was 11.2 ± 1.5 min⁻¹, the “Km, predicted from in vitro” value (CYP2E1 [9]; rat, Km in suspension divided by Kst 0.50) was 1516 ppm in air and the long-term carcinogenicity study [10] was “negative”. The “k4 (suicide inactivation rate constant)” value (CYP [11]; lung microsomes pooled from 50 rats, two incubations) was 0.573 min⁻¹ and 0.392 min⁻¹, the “VmaxEO (maximum EO formation rate)” value (CYP [11]; pooled rat lung microsomes, mean of 18,600 and 57,800 ppm ET) was 0.055 nmol/min/mg protein and the “k4 (suicide inactivation rate constant)” value (CYP [12]; lung microsomes pooled from 150 mice, two incubations) was 0.306 min⁻¹ and 0.326 min⁻¹. For the same compound, the “VmaxEO (maximum EO formation rate)” value (CYP [12]; pooled mouse lung microsomes, mean of 16,500 and 75,400 ppm ET) was 0.073 nmol/min/mg protein, the “VmaxEO (maximum rate of EO formation)” value (CYP [13]) was 0.074 nmol/min/mg protein and the mutagenicity [14] was “negative”.
For `CC1CO1` (centres unmarked) [PO, propylene oxide], the “hepatic microsomal elimination clearance” value (epoxide hydrolase (EH) [15]) is given as 4.4 μl/min/mg protein, the “half-life of nonenzymatic GSH conjugation” value [16] is given as 1.7 h and the “hepatic microsomal elimination clearance” value (epoxide hydrolase (EH) [17]) is given as 9.9 μl/min/mg protein. For the same compound, the “half-life of the noncatalyzed aqueous hydrolysis” value [18] was 88 h.
For `C=Cc1ccccc1` [Styrene, styrene], the “partition ratio k3/k4” value [19] is given as 10,000.
